Measured values reported in patent US12728118B2, “Methods and compositions for the treatment of corneal endothelium disorders” (The Schepens Eye Research Institute, Inc., priority 2020, dated 2026).
“Also recorded” adds a separate entry of the source.

How the values were obtained:
HCEnC-21T cells = test: LA-qPCR DNA lesion analysis in HCEnC-21T cells treated with 4-OHE2; format: cell-based, human; conditions: 15 μM 4-OHE2; 24 h
Protocol: (§1) Human Corneal Endothelial Cell Culture. Telomerase and SV40 T antigen immortalized normal human CE cell lines HCEnC-21T and HCEnC-SV-67F-16, respectively, were previously generated in our laboratory (26, 62). HCEnC-21T cells were seeded in estrogen-free medium (phenol red-free OptiMEM-I; Thermo Fisher Scientific) with charcoal stripped FBS (HyClone), 200 mg/L calcium chloride (Sigma-Aldrich), 0.08% chondroitin sulfate (Sigma-Aldrich) and treated with 15 μM 4-OHE2 (Steraloids) in phenol red-free OptiMEM-I. UVA Irradiation of Mouse Cornea. A UVA LED light source (M365LP1; Thorlabs) with an emission peak of 365 nm light, 9 nm bandwidth (FWHM) and irradiance of 398 mW/cm 2 was focused to illuminate a 4-mm-diameter spot onto the mouse cornea. The energy was measured using a laser sensor (model L49 [150A]; Ophir), and the time of UVA exposure was adjusted to deliver the appropriate fluence (10 min 29 s for 250 J/cm^2, 20 min 57 s for 500 J/cm^2, 31 min 26 s for 750 J/cm^2, and 41 min 54 s for 1,000 J/cm^2). The right eye (OD) was irradiated while the contralateral eye (OS) was covered with heat retention drapes (SpaceDrapes, Inc.) to serve as untreated control. […]
(§2) DNA Damage Analysis Using LA-qPCR. […] DNA lesion frequencies were calculated as described (24). […]

mouse cornea = test: UVA-induced FECD mouse model: central corneal thickness (CCT) by OCT; format: in vivo
Protocol: (§3) Experimental Animals. C57BL/6 wild-type mice (male and female, 7 to 15 wk old; The Jackson Laboratory or Charles River) were used for this study. Mice were housed in a climate-controlled animal facility at the Schepens Eye Research Institute (Boston) and kept under cyclic light conditions with 12 h ON or OFF. Mice were anesthetized with a combined dose of ketamine (100 mg/kg) and xylazine (20 mg/kg) administered intraperitoneally. Female mice were irradiated at proestrus stage (61). For the NAC-treated group, mice were fed daily with drinking water containing 1 g of NAC/kg body weight from 1 d prior up to 3 mo post-UVA. All animal experiments were approved by the Institutional Animal Care and Use Committee and adhered to the ARVO Statement for the Use of Animals in Ophthalmic and Vision Research.
as §1
In vivo Imaging. […] CCT was measured using inbuilt software.

[1] = tested on: mouse corneal endothelial cell (MCEnC); test: UVA-induced FECD mouse model: corneal endothelial cell density (in vivo confocal HRT / ZO-1 immunostaining); conditions: for increase in MCEnC density vs 1,000 J/cm^2 UVA irradiation only / MCEnC density: 2 mo, 1,000 J/cm^2 UVA; for increase in MCEnC density vs 1,000 J/cm^2 UVA irradiation only: NAC in drinking water 1 g/kg from 1 d prior
Protocol: as §3
Human Corneal Endothelial Cell Culture. Telomerase and SV40 T antigen immortalized normal human CE cell lines HCEnC-21T and HCEnC-SV-67F-16, respectively, were previously generated in our laboratory (26, 62). HCEnC-21T cells were seeded in estrogen-free medium (phenol red-free OptiMEM-I; Thermo Fisher Scientific) with charcoal stripped FBS (HyClone), 200 mg/L calcium chloride (Sigma-Aldrich), 0.08% chondroitin sulfate (Sigma-Aldrich) and treated with 15 μM 4-OHE2 (Steraloids) in phenol red-free OptiMEM-I. UVA Irradiation of Mouse Cornea. A UVA LED light source (M365LP1; Thorlabs) with an emission peak of 365 nm light, 9 nm bandwidth (FWHM) and irradiance of 398 mW/cm 2 was focused to illuminate a 4-mm-diameter spot onto the mouse cornea. The energy was measured using a laser sensor (model L49 [150A]; Ophir), and the time of UVA exposure was adjusted to deliver the appropriate fluence (10 min 29 s for 250 J/cm^2, 20 min 57 s for 500 J/cm^2, 31 min 26 s for 750 J/cm^2, and 41 min 54 s for 1,000 J/cm^2). The right eye (OD) was irradiated while the contralateral eye (OS) was covered with heat retention drapes (SpaceDrapes, Inc.) to serve as untreated control. Mouse eyeballs from CYP1B1-null mice (age 8 to 12 wk, 10 females and 10 males) (31) were enucleated, rinsed with phosphate-buffered saline (PBS), and transported on ice, and cornea excision was performed within 24 h of the animal's death. Four 12-inch RPR-3500A UVA tubes (The Southern New England UV Co.) emitting 350 nm light (irradiance: 7.13 mW/cm 2) were used to irradiate the corneoscleral buttons placed in sterile PBS, with the endothelial side facing the source. The fluence delivered was 25 J/cm^2 (58 min 24 s at a distance of 10 cm). Irradiated corneas were snap-frozen, homogenized using a tissue grinder, and dissolved in methanol:water (2:1) for estrogen metabolite analysis.
The mouse was wrapped with heat retention drapes on the platform that holds the mouse body securely for imaging CE cells by laser scanning IVCM using the Heidelberg Retina Tomograph III (HRT III) with Rostock Corneal Module (RCM) (Heidelberg Engineering). The laser confocal microscope acquires 2D images that represent a coronal section of the cornea of 400×400 μm (160,000 μm^2) at a selectable corneal depth. Acquired images comprise 384×384 pixels and with a lateral resolution of 1 μm per pixel. Digital images were stored on a computer workstation at 3 frames per second.
Analysis of CE Cell Density. The CE density of HRT images acquired before UVA and post-UVA at 2 wk and 1 and 2 mo was analyzed by a semiautomated cell counter in the software Heidelberg Eye Explorer, version 1.3.0 (Heidelberg Engineering GmbH) inbuilt in HRT3. The mean cell density was calculated from 3 mice whose HRT images were counted by at least 2 observers. For each image, an area with at least 50 cells was selected. For CE density calculated from the images of 3 mice with ZO-1 immunostaining, cell count was performed manually by 2 blinded observers using a plug-in for ImageJ 1.46r (https://imagescience.org/meijering/software/imagescience; provided in the public domain by Wayne Rasband, NIH). […]

MCEnCs = test: TUNEL assay on whole mount mouse CE after UVA; format: in vivo; conditions: females and males; 3 mo post-UVA
Protocol: as §3
(§4) Human Corneal Endothelial Cell Culture. Telomerase and SV40 T antigen immortalized normal human CE cell lines HCEnC-21T and HCEnC-SV-67F-16, respectively, were previously generated in our laboratory (26, 62). […] The energy was measured using a laser sensor (model L49 [150A]; Ophir), and the time of UVA exposure was adjusted to deliver the appropriate fluence (10 min 29 s for 250 J/cm^2, 20 min 57 s for 500 J/cm^2, 31 min 26 s for 750 J/cm^2, and 41 min 54 s for 1,000 J/cm^2). […]

mouse aqueous humor = test: ROS production assay (H2O2, Amplex Red) in mouse aqueous humor after UVA; format: in vivo; conditions: 1 d post-UVA
Protocol: as §3, with “All animal experiments were approved by the Institutional Animal Care and Use Committee and adhered to the ARVO Statement for the Use of Animals in Ophthalmic and Vision Research.” left out
Human Corneal Endothelial Cell Culture. […] The energy was measured using a laser sensor (model L49 [150A]; Ophir), and the time of UVA exposure was adjusted to deliver the appropriate fluence (10 min 29 s for 250 J/cm^2, 20 min 57 s for 500 J/cm^2, 31 min 26 s for 750 J/cm^2, and 41 min 54 s for 1,000 J/cm^2). […]
ROS Production Assay. Extracellular H2O2 levels in the mouse aqueous humor (3 μL), collected using a capillary needle from the dilated mouse anterior chamber, were detected using the Amplex Red Assay Kit (Molecular Probes, Life Technologies) according to manufacturer's instructions. Fluorescence was measured with excitation and emission at 550 and 590 nm, respectively, using a microplate reader (Bio-Tek) with Gen5 software at 37° C.

MCEnC mtDNA and nDNA = test: DNA damage analysis using LA-qPCR in MCEnCs after UVA; format: in vivo, mouse; conditions: 1,000 J/cm^2 UVA at 3 mo
Protocol: as §3, §4, §2

[2] = tested on: corneal endothelial cell (CEnC); test: UVA light-induced CEnC loss in NQO1+/+ and NQO1−/− female mice (mouse model of FECD), HRT imaging; format: in vivo
Protocol: A mouse model of FECD was generated by knocking out the NQO1 gene. […] NQO1+/+ and NQO1−/− female mice were irradiated with UVA (500 J/cm^2; time: 20 minutes) to initiate CEnC loss. Either TMS (1 mg/kg) or DMSO (vehicle) was intraperitoneally injected three times a week post-UVA irradiation until week 2 (FIG. 13A). Central corneal thickness (CCT) and Corneal endothelium (CE) imaging was performed using anterior segment-optical coherence tomography (OCT) and Heidelberg Retina Tomograph III (HRT III) prior to UVA irradiation and then at day 1, week 1, week 2, and week 4 post-UVA irradiation. The CE density (cells/mm^2) was quantified by a semi-automated cell counter inbuilt in HRT machine. A mouse model of FECD was generated by knocking out the NQO1 gene. […] NQO1+/+ and NQO1−/− female mice were irradiated with UVA (500 J/cm^2; time: 20 minutes) to initiate CEnC loss. Either berberine (10 mg/kg) or Vehicle (90% PBS+5% Tween-80+5% polyethylene glycol) was intraperitoneally injected immediately after and at week 1 post-UVA irradiation (FIG. 14A). Central corneal thickness (CCT) and corneal endothelium (CE) imaging was performed using anterior segment-optical coherence tomography (AS-OCT) and Heidelberg Retina Tomograph III (HRT III) prior to UVA irradiation and then at day 1, week 1, and week 2, post-UVA irradiation. The CE density (cells/mm^2) was quantified by a semi-automated cell counter inbuilt in HRT machine.

[3] = tested on: corneal endothelial (CE) cell; test: UVA-induced corneal endothelial cell loss in female mice, CYP1B1 inhibitor treatment; format: in vivo, mouse
Protocol: FIG. 12. […] TMS was injected intraperitoneally (1.5 mg/kg) in female mice 1 h prior to 500 J/cm^2 UVA and 3 times a week thereafter for two weeks. Mice similarly injected with DMSO served as the control (n=5; white bar).

C[C@]12CC[C@@H]3c4ccc(O)c(O)c4CC[C@H]3[C@@H]1CC[C@@H]2O [4-OHE2, 4-hydroxyestradiol]
DNA lesions in the nuclear encoded β-globin gene (HCEnC-21T cells): 0.46 DNA lesions per 10 kb
mtDNA lesions (HCEnC-21T cells): 0.65 DNA lesions per 10 kb

CC(=O)N[C@@H](CS)C(=O)O [NAC, N-acetylcysteine]
CCT (mouse cornea; 1 to 3 mo after 1,000 J/cm^2 UVA): remained close to the untreated baseline
CCT vs 1,000 J/cm^2 treated females (mouse cornea; females, 1, 2, and 3 mo after 1,000 J/cm^2 UVA): significant decrease in CCT
CCT vs 1,000 J/cm^2 treated males (mouse cornea; males, 2 wk and 1 and 3 mo after 1,000 J/cm^2 UVA): significant decrease in CCT
morphological and molecular changes induced by UVA ([1]; UVA 1000 J/cm^2, in vivo (FIG. 10)): rescued
increase in MCEnC density vs 1,000 J/cm^2 UVA irradiation only ([1]; females): 1.7 fold
MCEnC density ([1]; females, no-NAC 855±115): 1,521±313 cells per square millimeter
endothelial cell density ([1]; male and female, 3 mo after UVA, ZO-1 immunostaining): significantly rescued
increase in MCEnC density vs 1,000 J/cm^2 UVA irradiation only ([1]; males): 1.6 fold
MCEnC density ([1]; males, no-NAC 944±136): 1,560±136 cells per square millimeter
TUNEL-positive cells vs non-NAC-treated UVA irradiated mice (MCEnCs): significantly less TUNEL-positive cells
ROS formed due to UVA (H2O2 in aqueous humor) (mouse aqueous humor): significantly reduced
nDNA damage (MCEnC mtDNA and nDNA; both sexes): significantly rescued
mtDNA damage (MCEnC mtDNA and nDNA; females): persisted

COc1cc(/C=C/c2ccc(OC)cc2OC)cc(OC)c1 [TMS, trans-2,3′,4,5′-tetramethoxystilbene]
morphology of CEnC vs vehicle ([2]; NQO1+/+ and NQO1−/− female mice, TMS 1 mg/kg ip three times a week, weeks 2 and 4 post-UVA 500 J/cm^2): less irregular morphology
CEnC number vs vehicle ([2]; NQO1+/+ and NQO1−/− female mice, TMS 1 mg/kg ip, weeks 2 and 4 post-UVA 500 J/cm^2): higher CEnC number; also recorded: reduces CEnC loss
corneal endothelial cell loss ([3]; 1 week, 2 weeks and 1 month post 500 J/cm^2, 1.5 mg/kg intraperitoneally 1 h prior and 3 times a week for two weeks, vs DMSO, p<0.05): Rescue of corneal endothelial cell loss
endothelial cell degeneration / UVA-induced corneal endothelial cell loss ([3]; mouse model of FECD, in vivo (FIGS. 11 and 12)): delayed the endothelial cell degeneration; also recorded: Rescue of UVA-induced corneal endothelial cell loss

COc1ccc2cc3[n+](cc2c1OC)CCc1cc2c(cc1-3)OCO2 [berberine]
morphology of CEnC vs vehicle ([2]; NQO1+/+ and NQO1−/− female mice, berberine 10 mg/kg ip, week 2 post-UVA 500 J/cm^2): less irregular morphology
CEnC number vs vehicle ([2]; NQO1+/+ females, berberine 10 mg/kg ip, week 2 post-UVA): trend towards higher CEnC number
CEnC number vs vehicle ([2]; NQO1−/− females, berberine 10 mg/kg ip, week 2 post-UVA): significantly higher CEnC number
UVA light-induced CEnC loss ([2]; berberine 10 mg/kg, mouse model of Fuchs Dystrophy (FIG. 14 title)): rescues UVA light-induced CEnC loss
